Our source for the EC50 values is patent US20240299572A1, “NITROGEN-CONTAINING COMPOUND, CONJUGATE CONTAINING SAID COMPOUND, AND APPLICATION THEREOF” (SHANGHAI DE NOVO PHARMATECH CO., LTD., priority 2021, published 2024).

For the first experiment, the target named is T1, TLR8 (Homo sapiens, UniProt Q9NR97).
T1 construct: host or cells: HEK293 (HEK-BLUE-hTLR8)
T1 sequence (Q9NR97 27-1041): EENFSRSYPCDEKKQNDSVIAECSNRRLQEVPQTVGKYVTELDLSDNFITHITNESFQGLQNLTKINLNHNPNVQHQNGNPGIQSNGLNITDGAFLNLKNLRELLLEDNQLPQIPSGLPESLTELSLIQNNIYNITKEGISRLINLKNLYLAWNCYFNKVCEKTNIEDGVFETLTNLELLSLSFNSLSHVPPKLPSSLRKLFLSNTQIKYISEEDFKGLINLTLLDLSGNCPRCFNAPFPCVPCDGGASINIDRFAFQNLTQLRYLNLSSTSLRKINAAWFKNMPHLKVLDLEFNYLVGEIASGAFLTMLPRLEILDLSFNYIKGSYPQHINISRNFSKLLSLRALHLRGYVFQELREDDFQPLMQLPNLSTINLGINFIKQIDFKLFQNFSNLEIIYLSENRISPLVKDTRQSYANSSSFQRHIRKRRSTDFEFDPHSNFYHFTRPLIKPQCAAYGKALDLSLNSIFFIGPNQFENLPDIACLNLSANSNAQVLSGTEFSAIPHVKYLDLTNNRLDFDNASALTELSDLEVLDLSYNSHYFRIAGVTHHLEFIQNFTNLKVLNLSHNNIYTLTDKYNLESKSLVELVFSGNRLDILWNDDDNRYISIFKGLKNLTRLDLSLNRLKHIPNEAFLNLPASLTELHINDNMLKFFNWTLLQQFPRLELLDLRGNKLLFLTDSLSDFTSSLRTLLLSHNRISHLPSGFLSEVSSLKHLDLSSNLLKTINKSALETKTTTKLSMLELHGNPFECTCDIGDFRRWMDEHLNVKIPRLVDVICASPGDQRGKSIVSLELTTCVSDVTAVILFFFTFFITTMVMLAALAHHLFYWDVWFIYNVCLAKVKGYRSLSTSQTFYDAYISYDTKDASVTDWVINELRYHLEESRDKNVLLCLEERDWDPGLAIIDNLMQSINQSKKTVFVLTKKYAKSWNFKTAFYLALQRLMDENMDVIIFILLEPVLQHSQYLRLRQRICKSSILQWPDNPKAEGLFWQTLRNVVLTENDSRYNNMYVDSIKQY
The experiment is described as follows: Cell activity assay of TLR8 (HEK-BLUE-hTLR8, SEAP reporter, Quanti-Blue). Format: cell-based. The following applies: HEK-BLUE-hTLR8 cells, 24 hours. As for the experimental part: (§1) In this experiment, TLR7 and TLR8 bioactivity assays of the compound of formula I were determined using a cellular test. This method was performed in human embryonic kidney cells (HEK293) expressing TLR family members such as TLR4, TLR7, TLR8, or TLR9. TLR agonist activates TLR, causing downstream NF-KB activation, thus activating the secreted embryonic alkaline phosphatase (SEAP) reporter gene. Quanti-Blue (InvivoGen) reagent was used to assay the SEAP activity, thus reflecting the activity of TLR7 and TLR8 agonists.
(§2) The detailed experimental method is as follows:
HEK-BLUE-hTLR7 and HEK-BLUE-hTLR8 cell lines were purchased from Invivogen company and cultured in DMEM medium containing 4.5 g/L glucose (Sigma-Aldrich) and 10% fetal bovine serum under a condition of a temperature of 37° C., a humidity of 95%, and 5% CO2.
The test concentration of the compound ranged from 0.5 nM to 15 μM, with a total of 10 concentration gradients. TLR7 or TLR8 agonists with known activity were added thereto as positive controls, and 1 μL of DMSO as a negative control.
Cell treatment was as follows: The cells were removed from the incubator and centrifuged to remove the culture medium, resuspended in a T-150 flask with 10 mL of pre-warmed PBS. 12 mL of pre-warmed culture medium was added thereto, and the cells were pipetted gently up and down, and counted under a microscope. A single cell suspension of 200,000 cells/mL was prepared immediately with culture medium, and 200 μL/well (40,000 cells/well) of the cell suspension was added to a 96-well plate. The final concentration of DMSO was 0.5%.
The compound was added thereto, and the mixture was incubated in a 5% CO2 incubator at 37° C. for 24 hours.
20 μL/well of supernatant was pipetted into 180 μL of Quanti-Blue preheated to 37° C., and the mixture was incubated at 37° C. for 1.5 hours, and the absorbance (OD value) at 650 nm was measured with a spectrophotometer. The calculation formula for the agonistic effect is as follows: • Effect %=(average OD value of the administration group-average OD value of the DMSO group)/(average OD value of the positive drug group-average OD value of the DMSO group)×100 • The concentration-effect curves were fitted with Graphpad software, and EC50 was calculated. The test results are shown in Table 4 (A represents <100 nM, B represents 100 nM to 250 nM, C represents 250 nM to […], D represents >2 μM, / represents not tested).
Broadly, the EC50 is the midpoint of the concentration-response curve. Low readings indicate higher potency in that assay, high ones lower potency in that assay. For `CCCN(CCC)C(=O)C1=Cc2ccc(C(=O)Nc3cnc4c(c3)CNCC4)nc2N=C(N)C1` [Compound 1, 8-amino-N^6,N^6-di-n-propyl-N^2-(5,6,7,8-tetrahydro-1,6-naphthyridin-3-yl)-7H-pyrido[2,3-b]azepine-2,6-dicarboxamide], the EC50 lay within 250 to 1000 nM.

`CCCN(CCC)C(=O)C1=Cc2ccc(C3(C(=O)Nc4cnc5c(c4)CNCC5)CC3)cc2N=C(N)C1` [Compound 3, 2-amino-N,N-di-n-propyl-8-(1-((5,6,7,8-tetrahydro-1,6-naphthyridin-3-yl)carbamoyl)cyclopropyl)-3H-benzo[b]azepine-4-carboxamide] registered an EC50 of 100 to 250 nM.

On to `CCCN(CCC)C(=O)C1=Cc2c(F)cc(C3(C(=O)Nc4cnc5c(c4)CNCC5)CC3)cc2N=C(N)C1` [Compound 5, 2-amino-6-fluoro-N,N-di-n-propyl-8-(1-((5,6,7,8-tetrahydro-1,6-naphthyridin-3-yl)carbamoyl)cyclopropyl)-3H-benzo[b]azepine-4-carboxamide], for which the EC50 is less than 100 nM.

Regarding `CCCN(CCO)C(=O)C1=Cc2ccc(C3(C(=O)Nc4cncc(CN)c4)CC3)cc2N=C(N)C1` [Compound 12, 2-amino-8-(1-((5-(aminomethyl)pyridin-3-yl)carbamoyl)cyclopropyl)-N-(2-hydroxyethyl)-N-n-propyl-3H-benzo[b]azepine-4-carboxamide], the EC50 fell in the range of 100 to 250 nM.

In turn, `CCCN(CCO)C(=O)C1=Cc2ccc(C(=O)Nc3cnc4c(c3)CNCC4)cc2N=C(N)C1` [Compound 13, 2-amino-N^4-(2-hydroxyethyl)-N^4-n-propyl-N^8-(5,6,7,8-tetrahydro-1,6-naphthyridin-3-yl)-3H-benzo[b]azepine-4,8-dicarboxamide] yielded an EC50 of 250 to 1000 nM.

The next experiment addresses T2, TLR7 (Homo sapiens, UniProt Q9NYK1).
T2 construct: host or cells: HEK293 (HEK-BLUE-hTLR7)
T2 sequence (Q9NYK1 27-1049): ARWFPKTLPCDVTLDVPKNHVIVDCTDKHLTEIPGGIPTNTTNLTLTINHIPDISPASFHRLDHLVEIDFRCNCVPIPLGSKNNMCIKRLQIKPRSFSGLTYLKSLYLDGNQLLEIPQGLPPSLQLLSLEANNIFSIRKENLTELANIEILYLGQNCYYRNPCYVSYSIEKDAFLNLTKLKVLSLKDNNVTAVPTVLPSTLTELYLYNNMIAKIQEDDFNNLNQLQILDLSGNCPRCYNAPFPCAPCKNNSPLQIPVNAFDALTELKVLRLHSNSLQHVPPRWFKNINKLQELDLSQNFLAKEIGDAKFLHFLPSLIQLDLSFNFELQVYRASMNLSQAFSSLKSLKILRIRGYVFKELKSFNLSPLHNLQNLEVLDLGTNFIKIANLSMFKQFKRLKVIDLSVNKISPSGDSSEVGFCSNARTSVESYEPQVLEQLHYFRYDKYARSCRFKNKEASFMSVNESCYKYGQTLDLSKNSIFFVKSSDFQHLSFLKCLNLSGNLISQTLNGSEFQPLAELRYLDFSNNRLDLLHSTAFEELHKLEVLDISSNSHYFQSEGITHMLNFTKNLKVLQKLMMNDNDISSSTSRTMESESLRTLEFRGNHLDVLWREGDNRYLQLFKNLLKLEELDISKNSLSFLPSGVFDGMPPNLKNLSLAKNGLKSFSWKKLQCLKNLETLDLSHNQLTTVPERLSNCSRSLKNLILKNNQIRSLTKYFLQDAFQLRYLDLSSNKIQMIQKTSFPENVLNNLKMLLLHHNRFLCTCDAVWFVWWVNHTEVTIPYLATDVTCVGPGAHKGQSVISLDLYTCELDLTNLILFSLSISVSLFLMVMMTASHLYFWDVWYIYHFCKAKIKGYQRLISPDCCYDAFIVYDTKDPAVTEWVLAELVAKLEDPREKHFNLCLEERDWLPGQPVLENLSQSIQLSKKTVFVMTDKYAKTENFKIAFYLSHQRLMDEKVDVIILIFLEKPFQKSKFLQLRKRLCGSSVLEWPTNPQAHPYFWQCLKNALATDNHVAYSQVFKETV
The experiment is described as follows: Cell activity assay of TLR7 (HEK-BLUE-hTLR7, SEAP reporter, Quanti-Blue). Format: cell-based. The following applies: HEK-BLUE-hTLR7 cells, 24 hours. Here is the method: as §1, §2
HEK-BLUE-hTLR7 and HEK-BLUE-hTLR8 cell lines were purchased from Invivogen company and cultured in DMEM medium containing 4.5 g/L glucose (Sigma-Aldrich) and 10% fetal bovine serum under a condition of a temperature of 37° C., a humidity of 95%, and 5% CO2. […]
Cell treatment was as follows: The cells were removed from the incubator and centrifuged to remove the culture medium, resuspended in a T-150 flask with 10 mL of pre-warmed PBS. 12 mL of pre-warmed culture medium was added thereto, and the cells were pipetted gently up and down, and counted under a microscope. […]
20 μL/well of supernatant was pipetted into 180 μL of Quanti-Blue preheated to 37° C., and the mixture was incubated at 37° C. for 1.5 hours, and the absorbance (OD value) at 650 nm was measured with a spectrophotometer. […]
With `CCCN(CCO)C(=O)C1=Cc2ccc(C(=O)Nc3cnc4c(c3)CNCC4)cc2N=C(N)C1` [Compound 13, 2-amino-N^4-(2-hydroxyethyl)-N^4-n-propyl-N^8-(5,6,7,8-tetrahydro-1,6-naphthyridin-3-yl)-3H-benzo[b]azepine-4,8-dicarboxamide], the half-maximal effective concentration (EC50) is more than 2000 nM.
